Values quoted from earlier work in US5229370A, “Water soluble branched beta cyclodextrin steroid complex” (priority 1992, dated 1993).

Conditions: under ambient conditions; reported

## CC(C)CCC[C@@H](C)[C@H]1CC[C@H]2[C@@H]3CC=C4C[C@@H](O)CC[C@]4(C)[C@H]3CC[C@]12C [cholesterol]
  solubility of steroid in water: 2 µg/mL

## CC(=O)[C@H]1CC[C@H]2[C@@H]3CCC4=CC(=O)CC[C@]4(C)[C@H]3CC[C@]12C [progesterone]
  solubility of steroid in water: 16 µg/mL

## C[C@]12CC[C@H]3[C@@H](CCC4=CC(=O)CC[C@@]43C)[C@@H]1CC[C@@H]2O [testosterone]
  solubility of steroid in water: 40 µg/mL
